These results are taken from patent publication US4410525A, “Alkoxy pyrazole derivatives and compositions” (Establissements Nativelle S.A., priority 1981, dated 1983).

Molecules are shown by their SMILES. Where two headings read alike, the source gives them in different places.

The subject of series [1] is ventricular arrhythmias induced by aconitine in the anesthetized rat. The series can be described thus: Antiarrhythmic test with aconitine on the rat. The format is in vivo. How it is done:
The derivatives of the invention were used in the test with aconitine on the rat. For this test, the anesthetized rat was intoxicated by an intravenous perfusion of aconitine (solution of aconitine nitrate: 15 mg/l; speed of perfusion: 0.4 ml/min) while its electrocardiogram was recorded permanently. During perfusion at constant speed, the time necessary for the appearance of ventricular arrhythmias, successively ventricular extrasystoles (ESV), ventricular tachycardium (TV) and ventricular fibrillation (FV) was measured.
The animals were divided into a control group (untreated) and treated group (different doses). The results are expressed as a percentage of prolonging the time of the appearance of the arrhythmias in the treated groups in relation to the control group. This prolongation of arrhythmia appearance time therefore corresponds to myocardiac protection against the arrhythmic effects of aconitine.

The test system of series [2] is rabbit cornea. The series can be described thus: Local contact anesthesia on the rabbit cornea. Particulars: solution at 0.25% or 1% by weight, eyewash instillation. The class given is in vivo. The source says:
For example, the derivatives described in Examples 2, 3, 4, 6, 7 and 9 are local anesthetics (100% anesthesia) in a solution at 0.25% or 1% by weight.

In series [3] the test system is anoxic ventricular fibrillation in mice. The series can be described thus: Cardiac antifibrillatory activity on the mouse (Lawson test). The class given is in vivo. Particulars: ip, intraperitoneal, 10 minutes before chloroform, read-out: ED 50 (protects half the mice against anoxic ventricular fibrillation). As to the method:
Cardiac antifibrillatory activity of the derivatives of the invention has been verified on the mouse using the Lawson test, in accordance with the method described by J. W. Lawson, J. Pharmacol. Exp. Therp. 160, 22-31 (1968), and C. Narcisse et al., Ann. Pharm. Fr. 37, 325-330 (1979).
The mice (20 per dose) received an intraperitoneal injection of the derivative 10 minutes before being placed in a chloroform saturated atmosphere. As soon as respiratory arrest occurred, the thorax was opened (5 to 10 seconds) and the state of the heart was checked: presence or absence of ventricular fibrillation. The efficacy dose 50 (ED 50) of the derivative being studied is the dose which protects half the mice against anoxic ventricular fibrillation.

Series [4] relates to anesthetized dog. The series can be described thus: Hemodynamic effects on the anesthetized dog. The format is in vivo. As to conditions: i.v.; for (dp/dt)l/p, percentage of variation / Cardiac flow, percentage of variation / Cardiac frequency, percentage of variation / Contraction force of the myocardium, percentage of variation / Systolic arterial pressure, percentage of variation / Systolic volume, percentage of variation: Example 4 series, vs pretreatment; for Cardiac frequency (result in words) / Systolic arterial pressure (result in words) / force of ventricular myocardiac contractions (result in words) / cumulative dose at which a 20% drop of cardiac flow is reached: anesthetized dog. How it is done: Cardiovascular tolerance was studied on the isolated guinea pig auricle, on the anesthetized rat and on the anesthetized dog.
On the anesthetized dog, the results obtained with respect to hemodynamic tolerance are summarized in Table 2 below which indicates the percentages of variation of the hemodynamic parameters in relation to the pre-treatment control period for the derivatives of Examples 2 and 4.
The parameters were recorded by means of:
Catheters connected to pressure sensors (arterial pressure, left ventricular pressure and its first derivative dp/dt);
Electromagnetic flowmeter on the aorta (aortic flow);
Strain gauge placed on the left ventricular myocardium (force of myocardiac contraction).
The derivatives were injected intraveneously, one dose approximately every 30 minutes and their effects were measured 20 minutes after the completion of the injection (length of the injection 2 minutes).

Series [5] has as its system isolated guinea pig auricle. The experiment in a line: Maximum stimulation frequency test on isolated guinea pig auricle. As to conditions: Cavia porcellus; 10 mg/l; read-out: Δ% MFS (decrease of the maximum frequency followed). As to the method: The maximum frequency test carried out studied the maximum stimulation frequency which can cause contraction of an isolated guinea pig auricle placed in a solution containing a derivative of the invention. The measurement was carried out before (control period) and then after introduction of the derivative into the solution.

A short description of series [6]: Acute toxicity (lethal dose 50) in the mouse. As to conditions: in vivo. An excerpt: The acute toxicity of the deriatives of the invention were studied by oral administration (P.O) to the mouse (10 animals, 5 males and 5 females per dose) and calculation of the lethal dose 50 (LD 50) in accordance with the method of Litchfield and Wilcoxon (J. Pharmacol., 96, 99-113 (1949)). Table 1 gives the LD 50 values of the derivatives of the invention.
In certain cases, the LD 50 was also studied after intraperitoneal injection (I.P.) of the derivatives.

The subject of series [7] is ventricular extrasystoles in the dog. The series can be described thus: Harris test on the dog. The format is in vivo. Particulars: during the 2 hours following the injection. How it is done: By way of example, the number of ventricular extrasystoles per minute decreases by approximately 50% during the 2 hours following the injection of the product, in the case of the derivative described in Example 10. Moreover, the antiarrhythmic effect (myocardiac protection) increases with the size of the dose injected.

The mark [8] stands for this setting: read-out: Prolongation of time of appearance of ventricular extrasystoles (ESV).
Where [9] appears, read: read-out: Prolongation of time of appearance of ventricular fibrillation (FV).
[10] abbreviates: read-out: Prolongation of time of appearance of ventricular tachycardium (TV).
Where [11] appears, read: oral (P.O.), 5 males and 5 females per dose, read-out: LD 50 P.O.

With `Cc1c(-c2ccccc2)n[nH]c1OCCN1CCOCC1` [Example 4, 3-Phenyl-4-methyl-5-morpholinoethoxy-pyrazole], in series [1] (setting [8]), the change in vivo at 10 mg/kg was 7%. The change in vivo at 10 mg/kg in series [1] (setting [9]) was found to be 18%. For the same compound, in series [1] (setting [10]), the change in vivo at 10 mg/kg turned out to be 22%. The compound also registered a local anesthesia in series [2] of 100%. In addition, in series [3], the ED50 is 46 mg/kg. Further, in series [4] (dose 1 mg/kg), the “(dp/dt)l/p, percentage of variation” value is “+10%”; the “Cardiac flow, percentage of variation” value is reported as 0%; the “Cardiac frequency, percentage of variation” value (“Cardiac frequency, percentage” for short) is listed as 0%; the “Contraction force of the myocardium, percentage of variation” value was “+5%”. Also, in series [4] (dose 1 mg/kg), the “Systolic arterial pressure, percentage of variation” value is reported as 0% and the “Systolic volume, percentage of variation” value worked out at 0%. For the same compound, in series [4] (dose +3 mg/kg), the “(dp/dt)l/p, percentage of variation” value is recorded as “+2%”; the “Cardiac flow, percentage of variation” value is listed as 0%; the “Cardiac frequency, percentage” value is reported as 0%; the “Contraction force of the myocardium, percentage of variation” value is “+10%”. In series [4] (dose +3 mg/kg), the “Systolic arterial pressure, percentage of variation” value stood at 0% and the “Systolic volume, percentage of variation” value is listed as 0%. In series [4] (dose +10 mg/kg), the “(dp/dt)l/p, percentage of variation” value is -10%; the “Cardiac flow, percentage of variation” value is listed as -23%; the “Cardiac frequency, percentage” value amounted to 0%; the “Contraction force of the myocardium, percentage of variation” value is given as “+26%”. In addition, in series [4] (dose +10 mg/kg), the “Systolic arterial pressure, percentage of variation” value is given as 0% and the “Systolic volume, percentage of variation” value is reported as -23%. In addition, in series [4] (dose +20 mg/kg), the “(dp/dt)l/p, percentage of variation” value was -21%; the “Cardiac flow, percentage of variation” value is -34%; the “Cardiac frequency, percentage” value is recorded as 0%; the “Contraction force of the myocardium, percentage of variation” value is “+42%”. For the same compound, in series [4] (dose +20 mg/kg), the “Systolic arterial pressure, percentage of variation” value was 0% and the “Systolic volume, percentage of variation” value is given as -34%. In series [4] (dose +40 mg/kg), the “(dp/dt)l/p, percentage of variation” value is on record as -10%; the “Cardiac flow, percentage of variation” value is -11%; the “Cardiac frequency, percentage” value was -18%; the “Contraction force of the myocardium, percentage of variation” value was “+52%”. Also, in series [4] (dose +40 mg/kg), the “Systolic arterial pressure, percentage of variation” value is 0% and the “Systolic volume, percentage of variation” value is -8%. In series [4], the “Cardiac frequency (result in words)” value was “does not change”, the “Systolic arterial pressure (result in words)” value is “does not change”, the “force of ventricular myocardiac contractions (result in words)” value is listed as “increases” and the “cumulative dose at which a 20% drop of cardiac flow is reached” value is “greater than 4 mg/kg”. In series [5], the inhibition at 10 µg/mL stood at 27%. Moreover, the LD50 in series [6] (setting [11]) turned out to be 750 mg/kg.

`Clc1ccc(-c2cc(OCCN3CCCC3)[nH]n2)cc1` [Example 7]: the change in vivo at 10 mg/kg came out at 11% in series [1] (setting [8]), 32% in series [1] (setting [9]) and 45% in series [1] (setting [10]). The local anesthesia in series [2] is given as 100%. For the same compound, the ED50 in series [3] came to 66 mg/kg. Further, the inhibition at 10 µg/mL in series [5] came to 45%. The LD50 in series [6] (ip, intraperitoneal (I.P.), read-out: LD 50 I.P.) turned out to be 280 mg/kg; in series [6] (setting [11]), 1000 mg/kg.

As to `c1ccc(-c2cc(OCCN3CCCCC3)[nH]n2)cc1` [Example 9], the change in vivo at 10 mg/kg in series [1] (setting [8]) was 0%. For the same compound, in series [1] (setting [9]), the change in vivo at 10 mg/kg is 38%. In addition, in series [1] (setting [10]), the change in vivo at 10 mg/kg stood at 28%. Besides, in series [2], the local anesthesia came out at 100%. The ED50 in series [3] is 44 mg/kg. In series [4], the “Cardiac frequency (result in words)” value was “drops moderately”, the “Systolic arterial pressure (result in words)” value is listed as “does not change”, the “force of ventricular myocardiac contractions (result in words)” value was “does not vary significantly” and the “cumulative dose at which a 20% drop of cardiac flow is reached” value was “greater than 4 mg/kg”. The inhibition at 10 µg/mL in series [5] turned out to be 48%. Besides, the LD50 in series [6] (setting [11]) fell in the range of 400 to 800 mg/kg.

In the case of `Clc1ccc(-c2cc(OCCN3CCOCC3)[nH]n2)cc1` [Example 10], the “decrease of the number of ventricular extrasystoles per minute” value in series [7] was “approximately 50%”. The inhibition at 10 µg/mL in series [5] was 15%. The LD50 in series [6] (setting [11]) turned out to be 1000 mg/kg.
